According to US20240327359A1, “3-ISOXAZOLIDINONE COMPOUND, PREPARATION METHOD, HERBICIDAL COMPOSITION AND APPLICATION THEREOF” (QINGDAO KINGAGROOT CHEMICAL COMPOUND CO., LTD., priority 2021, published 2024):

Assays:
Experiment in all cases: Activity test of the compositions, post-emergence treatment by foliage spray
Format in all cases: in vivo
[1] = tested on: Lolium multiflorum; details: foliage (F)
Method: (§1) The desired active ingredient B was purchased from a reagent company or synthesized by a known method. The technical materials were all dissolved in acetone and diluted with an aqueous solution containing 0.10% emulsifier Tween-80 which were to be used immediately after dilution.
(§2) Weeds were cultivated by a pot culture method. […] Weed seeds with plump and uniform grains were selected, soaked in lukewarm water at 25° C. for 6 hours, and germinated in a 28° C. biochemical incubator (in darkness). The weed seeds that had just germinated were evenly placed on the surface of the soil and then covered with 0.5-1 cm soil according to the sizes of seeds.
(§3) The culture was carried out in a controllable sunlight greenhouse at 20 to 30° C., in natural light, and with relative humidity of 57% to 72%.
(§4) Each treatment was repeated 4 times. Four pots with 20 weed seeds per pot were treated each time.
(§5) The agents were used for only once in total in the experiment. In the stage of 1.5-2 leaves, the weeds were thinned out to maintain 10 weeds per pot. Ten weeds were kept in each treatment, then continued to be cultured until Echinochloa crus-galli var. zelayensis reached the stage of 2-3 leaves, Cirsium setosum reached the stage of 5-6 leaves, Galium aparine reached the stage of 3-4 whorl leaves, Amaranthus retroflexus reached the stage of 3-5 leaves, Echinochloa crusgalli, Lolium multiflorum and Digitaria sanguinalis reached the stage of 3 leaves with one leaf not fully expanding for further treatment.
(§6) The well-cultured test materials were evenly placed on a platform with an area of 0.5 m^2, and solution of agents was sprayed on the stems and leaves thereof by the 3WP-2000-type walking spray tower at a dosage of 450 kg/ha and at a spray pressure of 0.3 MPa. After all the solution was sprayed, the valve was closed. After 30 seconds, the door of the spray tower was opened, and the nutritional bowl was taken out. Then the valve was opened, and the spray tube was cleaned by spraying 50 ml of water. After the treatment, the weeds were routinely cultured in a greenhouse.
(§7) A method for investigating absolute numbers was employed. Whole seedlings of survival weeds were cut off with a blade along the soil surface, and the fresh weight of the weeds was weighed with an analytical balance. For dead weeds, the fresh weight thereof was zero.
(§8) The investigation was performed 21 days after the treatment for only once in total.

[2] = tested on: Galium aparine; details: foliage (F)
Method: as §1, §2, §4, §5, §6, §7, §8

[3] = tested on: Amaranthus retroflexus; details: foliage (F)
Method: as §1, §2, §3, §4, §5, §6, §7, §8

[4] = tested on: Digitaria sanguinalis
Method: as §1, §2, §3, §4, §5, §6, §7, §8

[5] = tested on: Echinochloa crusgalli; details: foliage (F)
Method: as §1, §2, §3, §4, §5, §6, §7, §8

[6] = tested on: Echinochloa crus-galli var. zelayensis; details: Echinochloa crusgalli var. zelayensis, foliage (F)
Method: as §1, §2, §3, §4, §5, §6, §7, §8

C[C@@H](Oc1nc(F)c(Cl)c(N)c1Cl)C(=O)OCC1CCCO1 (stereo partly shown)
Control effect (%) of B applied alone (B) ([1]; B 8 g a.i./mu): 30.7%
Control effect (%) of B applied alone (B) ([1]; B 16 g a.i./mu): 44.1%

Cc1cc(Cl)ccc1OCC(=O)O [MCPA]
Control effect (%) of B applied alone (B) ([2]; B 20 g a.i./mu): 33.1%
Control effect (%) of B applied alone (B) ([2]; B 40 g a.i./mu): 46.7%

Cc1nn(C)cc1C(=O)Oc1c(C(=O)c2ccc(C(F)(F)F)cc2S(C)(=O)=O)c(C)nn1C [bipyrazone]
Control effect (%) of B applied alone (B) ([2]; B 0.75 g a.i./mu): 33.6%
Control effect (%) of B applied alone (B) ([2]; B 1.5 g a.i./mu): 46.2%

CCCCCCCC(=O)Oc1c(Br)cc(C#N)cc1Br [bromoxynil octanoate]
Control effect (%) of B applied alone (B) ([3]; B 6 g a.i./mu): 38.2%
Control effect (%) of B applied alone (B) ([3]; B 12 g a.i./mu): 49.5%

Cn1[nH]c(C2CC2)c(C(=O)c2ccc(C(F)(F)F)c(N3CCCCC3=O)c2Cl)c1=O [cypyrafluone]
Control effect (%) of B applied alone (B) ([1]; B 3 g a.i./mu): 26.7%
Control effect (%) of B applied alone (B) ([1]; B 6 g a.i./mu): 38.9%

COc1c(Cl)ccc(Cl)c1C(=O)O [dicamba]
Control effect (%) of B applied alone (B) ([2]; B 4 g a.i./mu): 28.6%
Control effect (%) of B applied alone (B) ([2]; B 8 g a.i./mu): 39.7%

COc1ncc(F)c2nc(S(=O)(=O)Nc3c(F)cccc3F)nn12 [florasulam]
Control effect (%) of B applied alone (B) ([2]; B 0.1 g a.i./mu): 31.5%
Control effect (%) of B applied alone (B) ([2]; B 0.2 g a.i./mu): 44.1%

Nc1c(Cl)c(F)nc(OCC(=O)O)c1Cl [fluroxypyr]
Control effect (%) of B applied alone (B) ([2]; B 4 g a.i./mu): 29.4%
Control effect (%) of B applied alone (B) ([2]; B 8 g a.i./mu): 46.1%

CS(=O)(=O)NC(=O)c1cc(Oc2ccc(C(F)(F)F)cc2Cl)ccc1[N+](=O)[O-] [fomesafen]
Control effect (%) of B applied alone (B) ([3]; B 4 g a.i./mu): 38.1%
Control effect (%) of B applied alone (B) ([3]; B 8 g a.i./mu): 47.5%

COc1c(Cl)ccc(-c2cc(N)c(Cl)c(C(=O)O)n2)c1F [halauxifen]
Control effect (%) of B applied alone (B) ([2]; B 0.2 g a.i./mu): 26.4%
Control effect (%) of B applied alone (B) ([2]; B 0.4 g a.i./mu): 37.2%

Cc1ccc2c(c1)[C@H](Nc1nc(N)nc(C(C)F)n1)[C@@H](C)C2 (stereo partly shown) [indaziflam]
Control effect (%) of B applied alone (B) ([4]; foliage treatment (F), B at 0.8 g a.i./mu, 21 days): 36.4%
Control effect (%) of B applied alone (B) ([4]; foliage treatment (F), B at 1.6 g a.i./mu, 21 days): 52.1%

COC(=O)c1ccc(CNS(C)(=O)=O)cc1S(=O)(=O)NC(=O)Nc1nc(OC)cc(OC)n1 [mesosulfuron-methyl]
Control effect (%) of B applied alone (B) ([1]; B 0.25 g a.i./mu): 31.5%
Control effect (%) of B applied alone (B) ([1]; B 0.5 g a.i./mu): 44.3%

CS(=O)(=O)c1ccc(C(=O)C2C(=O)CCCC2=O)c([N+](=O)[O-])c1 [mesotrione]
Control effect (%) of B applied alone (B) ([4]; foliage (F), B 2.5 g a.i./mu): 38.6%
Control effect (%) of B applied alone (B) ([4]; foliage (F), B 5 g a.i./mu): 52.1%

COc1cc(OC)nc(NC(=O)NS(=O)(=O)c2ncccc2C(=O)N(C)C)n1 [nicosulfuron]
Control effect (%) of B applied alone (B) ([4]; foliage (F), B 1 g a.i./mu): 29.7%
Control effect (%) of B applied alone (B) ([4]; foliage (F), B 2 g a.i./mu): 47.6%

COc1cnc(OC)n2nc(NS(=O)(=O)c3c(OCC(F)F)cccc3C(F)(F)F)nc12 [penoxsulam]
Control effect (%) of B applied alone (B) ([5]; B 0.5 g a.i./mu): 52.7%
Control effect (%) of B applied alone (B) ([5]; B 1 g a.i./mu): 61.7%

CCC(=O)Nc1ccc(Cl)c(Cl)c1 [propanil]
Control effect (%) of B applied alone (B) ([6]; B 16 g a.i./mu): 16.8%
Control effect (%) of B applied alone (B) ([6]; B 32 g a.i./mu): 31.2%

CCCN(CCC)C(=O)SCc1ccccc1 [prosulfocarb]
Control effect (%) of B applied alone (B) ([2]; B 50 g a.i./mu): 40.5%
Control effect (%) of B applied alone (B) ([2]; B 100 g a.i./mu): 56.1%

O=C(O)c1c(Cl)ccc2cc(Cl)cnc12 [quinclorac]
Control effect (%) of B applied alone (B) ([6]; B 4 g a.i./mu): 22.5%
Control effect (%) of B applied alone (B) ([6]; B 8 g a.i./mu): 41.4%

COC(=O)CCNC(=O)C(C)Sc1cc(-n2c(=O)cc(C(F)(F)F)n(C)c2=O)c(F)cc1Cl (stereo not shown) [tiafenacil]
Control effect (%) of B applied alone (B) ([5]; B 0.5 g a.i./mu): 33.4%
Control effect (%) of B applied alone (B) ([5]; B 1 g a.i./mu): 45.9%

Cc1cc(C)n(Cc2c(S(C)(=O)=O)ccc(C(=O)c3c(C)nn(C)c3OC(=O)c3cn(C)nc3C)c2Cl)n1 [tripyrasulfone]
Control effect (%) of B applied alone (B) ([5]; B 4 g a.i./mu): 26.7%
Control effect (%) of B applied alone (B) ([5]; B 8 g a.i./mu): 46.1%
